pIC50: −log10 of the molar value. Where “and” joins values, the source holds several entries; their conditions need not be identical. Equal entries are not always repeated.
Legend:
[1] = tested on: carrageenan induced rat paw oedema; assay: rat carrageenan-induced foot paw oedema model; assay type: in vivo; conditions: for Mean % increase in paw weight ± SEM / % Inhibition of paw oedema from control group: 2 h after carrageenan; for Mean % increase in paw weight ± SEM: control group 165.6 ± 1.6; for % Inhibition of paw oedema from control group: single dose screen (Table 1)
Description: Anti-inflammatory assessment of the newly synthesised compounds was carried out using an in vivo rat carrageenan-induced foot paw oedema model, as reported previously[16]^,[17].

59 cancer cell lines = assay: full NCI 59 cell line panel assay, single dose; assay type: cell-based; conditions: one dose 10.0 μM, 59 cell lines
HL-60(TB) (Leukaemia) = assay: NCI 59 cell line panel, single dose; assay type: cell-based; conditions: one dose 10.0 μM
[2] = tested on: NCI-H522 (NSC Lung Cancer); assay: NCI 59 cell line panel, single dose; assay type: cell-based; conditions: NCI-H522, one dose 10.0 μM
COX-1 = target: T1, COX-1 (Ovis aries, UniProt P05979); assay: colorimetric COX (ovine) inhibitor screening assay kit; assay type: biochemical; conditions: ovine COX-1, mean of two determinations
T1 construct: purchased Cayman Chemicals Inc., Ann Arbour, MI
T1 sequence (P05979 25-600): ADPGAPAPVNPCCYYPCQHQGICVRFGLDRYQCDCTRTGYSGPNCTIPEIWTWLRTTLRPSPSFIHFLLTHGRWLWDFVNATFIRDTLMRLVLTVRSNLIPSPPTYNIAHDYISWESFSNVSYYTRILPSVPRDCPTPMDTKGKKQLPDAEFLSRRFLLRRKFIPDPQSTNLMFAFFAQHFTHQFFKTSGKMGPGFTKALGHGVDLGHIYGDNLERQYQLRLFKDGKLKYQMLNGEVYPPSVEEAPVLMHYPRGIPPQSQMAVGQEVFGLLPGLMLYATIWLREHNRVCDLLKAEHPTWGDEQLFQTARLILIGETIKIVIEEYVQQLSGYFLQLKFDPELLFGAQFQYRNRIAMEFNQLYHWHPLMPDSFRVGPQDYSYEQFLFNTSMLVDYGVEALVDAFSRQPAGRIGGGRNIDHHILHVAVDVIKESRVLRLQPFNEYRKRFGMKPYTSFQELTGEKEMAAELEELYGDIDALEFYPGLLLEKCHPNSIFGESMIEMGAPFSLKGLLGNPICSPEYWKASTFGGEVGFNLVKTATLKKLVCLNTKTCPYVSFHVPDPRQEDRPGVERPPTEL
From the text: (§1) To determine the relative ability of the test compounds and reference drugs to inhibit COX-1/COX-2 isozymes, we used the colorimetric COX (ovine) inhibitor screening assay kit (Cayman Chemicals Inc., Ann Arbour, MI), according to the manufacturer’s instructions[3]^,[10]^,[11]^,[20].

COX-2 = target: T2, COX-2 (Ovis aries, UniProt P79208); assay: as above; assay type: biochemical; conditions: for SI, selectivity index (COX-1 IC50/COX-2 IC50): ovine COX-1/COX-2; for pIC50: ovine COX-2, mean of two determinations
T2 construct: purchased Cayman Chemicals Inc., Ann Arbour, MI
T2 sequence (P79208 17-603): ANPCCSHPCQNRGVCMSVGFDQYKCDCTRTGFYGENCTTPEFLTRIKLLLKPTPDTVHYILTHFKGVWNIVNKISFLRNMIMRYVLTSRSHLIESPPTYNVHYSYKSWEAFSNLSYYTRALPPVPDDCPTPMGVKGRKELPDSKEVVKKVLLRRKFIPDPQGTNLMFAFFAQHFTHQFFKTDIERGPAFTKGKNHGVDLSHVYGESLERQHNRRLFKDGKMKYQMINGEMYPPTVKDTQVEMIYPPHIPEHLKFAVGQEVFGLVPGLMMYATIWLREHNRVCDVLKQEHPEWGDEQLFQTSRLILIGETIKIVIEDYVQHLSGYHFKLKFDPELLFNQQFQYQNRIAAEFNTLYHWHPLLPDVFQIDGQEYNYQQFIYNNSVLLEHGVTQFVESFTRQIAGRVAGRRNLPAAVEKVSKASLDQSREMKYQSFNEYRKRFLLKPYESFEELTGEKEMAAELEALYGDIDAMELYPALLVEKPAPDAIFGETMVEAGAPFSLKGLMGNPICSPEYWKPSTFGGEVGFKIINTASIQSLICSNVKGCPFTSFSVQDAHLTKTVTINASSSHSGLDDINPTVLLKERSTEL
From the text: as §1

mice = assay: Ulcerogenicity measurement; assay type: in vivo
Description: Ulcerogenicity was evaluated according to a previously reported method[6]^a,[17]^,[18]. The number and total length of the ulcers for each animal were measured and their averages were calculated and used as the ulcer indices.

TK-10 (Renal Cancer) = assay: NCI 59 cell line panel, single dose; assay type: cell-based; conditions: TK-10, one dose 10.0 μM
UO-31 (Renal Cancer) = assay: NCI 59 cell line panel, single dose; assay type: cell-based; conditions: UO-31, one dose 10.0 μM
PC-3 (Prostate Cancer) = assay: NCI 59 cell line panel, single dose; assay type: cell-based; conditions: PC-3, one dose 10.0 μM
[3] = tested on: NCI-H322M (NSC Lung Cancer); assay: NCI 59 cell line panel, single dose; assay type: cell-based; conditions: one dose 10.0 μM
HOP-92 (NSC Lung Cancer) = assay: NCI 59 cell line panel, single dose; assay type: cell-based; conditions: HOP-92, one dose 10.0 μM

| SMILES | Mean % increase in paw weight ± SEM [1] [%] | % Inhibition of paw oedema from control group [1] | PCE (positive cytotoxic effect: cell lines with growth inhibition >10% / total number of cell lines) (59 cancer cell lines) | GI% [2] [%] | pIC50 (COX-1) | SI, selectivity index (COX-1 IC50/COX-2 IC50) (COX-2) | pIC50 (COX-2) | other results |
| --- | --- | --- | --- | --- | --- | --- | --- | --- |
| NS(=O)(=O)c1cccc(N2C(=O)c3ccccc3C2=O)c1 [Compound 4] | 41.0 ± 0.2 | 77.8% and 77.8 ± 0.6% | 3/59 | 16.0 | < 4.30 | >277.8 | 6.74 | Percentage inhibition of paw oedema from control group ([1]; dose 45 mg/kg): 65.0%; Percentage inhibition of paw oedema from control group ([1]; dose 65 mg/kg): 77.8%; Percentage inhibition of paw oedema from control group ([1]; dose 80 mg/kg): 86.2%; ED50 ([1]; from three graded doses (45, 65, 80 mg/kg)): 45.3 mg/kg; GI% (HL-60(TB) (Leukaemia)): 18%; Average number of ulcers (mice; mice): 6; Mean sum of lengths of elongated ulcer (mice; mice, ± SEM): 4.7 ± 0.54 mm; level of ulcerogenic activity (in words) (mice; relative to diclofenac and celecoxib): ulcerogenic level similar to celecoxib and less than that of diclofenac; GI% (TK-10 (Renal Cancer)): 11% |
| Cc1ccc2c(c1)C(=O)N(c1cccc(S(N)(=O)=O)c1)C2=O [Compound 5, 3-(5-Methyl-1,3-dioxoisoindolin-2-yl)benzenesulfonamide] | 78.1 ± 0.7 | 57.7% and 57.7 ± 0.5% | 5/59 | 11 | < 4.30 | >55.6 | 6.05 | GI% (UO-31 (Renal Cancer)): 17%; GI% (PC-3 (Prostate Cancer)): 11%; GI% [3]: 11%; GI% (HOP-92 (NSC Lung Cancer)): 11%; melting point: 225 to 226 °C |

Source: PMC7034070, “Synthesis, anti-inflammatory, cytotoxic, and COX-1/2 inhibitory activities of cyclic imides bearing 3-benzenesulfonamide, oxime, and β-phenylalanine scaffolds: a molecular docking study” (Journal of Enzyme Inhibition and Medicinal Chemistry, 2020)
